Test results from ChEMBL document CHEMBL3877248, “Further investigation of inhibitors of MRSA pyruvate kinase: Towards the conception of novel antimicrobial agents” (Eur J Med Chem, 2017).
In brackets after ≈: the same amount, converted by molar mass.

Legend:
[1] = tested on: Staphylococcus aureus; assay: Antibacterial activity against Staphylococcus aureus ATCC 29213 measured after 24 hrs by two-fold microbroth dilution method; format: functional
[2] = molecular target: T1, Pyruvate kinase (Staphylococcus aureus (strain MRSA252), UniProt Q6GG09); assay: Inhibition of recombinant N-terminal His-tagged methicillin-resistant Staphylococcus aureus MRSA252 pyruvate kinase expressed in Escherichia coli BL21(DE3) using PEP as substrate measured after 5 mins by LDH-coupled assay; design: species or system Staphylococcus aureus subsp. aureus MRSA252
T1 sequence (Q6GG09 whole entry): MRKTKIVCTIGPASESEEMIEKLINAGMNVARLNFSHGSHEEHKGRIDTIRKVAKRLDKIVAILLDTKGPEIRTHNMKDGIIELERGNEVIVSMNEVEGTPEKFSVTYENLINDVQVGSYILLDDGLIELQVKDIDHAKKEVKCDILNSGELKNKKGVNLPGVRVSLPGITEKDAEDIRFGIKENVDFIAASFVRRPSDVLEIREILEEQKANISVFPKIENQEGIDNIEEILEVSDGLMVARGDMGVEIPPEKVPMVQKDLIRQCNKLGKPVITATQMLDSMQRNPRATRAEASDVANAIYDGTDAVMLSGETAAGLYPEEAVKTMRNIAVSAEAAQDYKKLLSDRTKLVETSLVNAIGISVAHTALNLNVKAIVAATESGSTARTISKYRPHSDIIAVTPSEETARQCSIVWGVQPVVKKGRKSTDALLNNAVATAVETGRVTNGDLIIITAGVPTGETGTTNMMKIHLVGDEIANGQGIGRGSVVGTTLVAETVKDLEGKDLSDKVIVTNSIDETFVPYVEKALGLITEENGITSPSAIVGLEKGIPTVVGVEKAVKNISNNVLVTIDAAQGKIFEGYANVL

[3] = Selectivity ratio for inhibition of recombinant N-terminal His-tagged methicillin-resistant Staphylococcus aureus MRSA252 pyruvate kinase over inhibition of human recombinant N-terminal His-tagged pyruvate kinase M2
[4] = Selectivity ratio for inhibition of recombinant N-terminal His-tagged methicillin-resistant Staphylococcus aureus MRSA252 pyruvate kinase over inhibition of human recombinant N-terminal His-tagged pyruvate kinase-R
[5] = tested on: Staphylococcus aureus; assay: Antibacterial activity against methicillin-resistant Staphylococcus aureus MRSA252 by two-fold microbroth dilution method; format: functional
[6] = Selectivity ratio for inhibition of recombinant N-terminal His-tagged methicillin-resistant Staphylococcus aureus MRSA252 pyruvate kinase over inhibition of human recombinant N-terminal His-tagged pyruvate kinase-L
[7] = Selectivity ratio for inhibition of recombinant N-terminal His-tagged methicillin-resistant Staphylococcus aureus MRSA252 pyruvate kinase over inhibition of human recombinant N-terminal His-tagged pyruvate kinase M1
[8] = molecular target: T2, Pyruvate kinase (Staphylococcus aureus (strain MRSA252)) (UniProt Q6GG09); assay: Inhibition of recombinant N-terminal His-tagged methicillin-resistant Staphylococcus aureus MRSA252 pyruvate kinase expressed in Escherichia coli BL21(DE3) at 1 uM using PEP as substrate measured after 5 mins by LDH-coupled assay relative to control; details: Staphylococcus aureus subsp. aureus MRSA252
T2 sequence (whole entry): T1 sequence (Q6GG09 whole entry)

[9] = molecular target: T2, Pyruvate kinase (Staphylococcus aureus (strain MRSA252)); assay: Inhibition of recombinant N-terminal His-tagged methicillin-resistant Staphylococcus aureus MRSA252 pyruvate kinase expressed in Escherichia coli BL21(DE3) at 0.1 uM using PEP as substrate measured after 5 mins by LDH-coupled assay relative to control; details: Staphylococcus aureus subsp. aureus MRSA252
[10] = molecular target: T2, Pyruvate kinase (Staphylococcus aureus (strain MRSA252)); assay: Inhibition of recombinant N-terminal His-tagged methicillin-resistant Staphylococcus aureus MRSA252 pyruvate kinase expressed in Escherichia coli BL21(DE3) at 10 uM using PEP as substrate measured after 5 mins by LDH-coupled assay relative to control; details: Staphylococcus aureus subsp. aureus MRSA252

| SMILES | MIC>98 [1] | IC50 [2] | inhibition [8] | further results |
| --- | --- | --- | --- | --- |
| O=C(Nc1nc2ccc(Br)cc2s1)c1cc2cc(Br)ccc2[nH]1 | >64 µg/mL | 23 nM |  |  |
| O=C(Nc1nc2cc(Br)ccc2[nH]1)c1cc2ccc(Br)cc2[nH]1 | >64 µg/mL | 2 nM |  |  |
| O=C(/C=C/c1cc2ccccc2[nH]1)c1cc2ccc(Br)cc2[nH]1 | >64 µg/mL | 5 nM |  |  |
| O=C(Nc1nc2ccc(Br)cc2s1)c1ccc(Br)cc1O | >64 µg/mL |  |  |  |
| O=C(Nc1nc2cc(Br)ccc2[nH]1)c1cc2cc(Br)ccc2[nH]1 | >64 µg/mL | 3 nM |  |  |
| O=C1NC[C@@H](c2c[nH]c3cc(Br)ccc23)N[C@H]1c1c[nH]c2cc(Br)ccc12 [CIS-3,4-DIHYDROHAMACANTHIN B] |  |  |  | Selectivity ratio [3]: 166 to 600; Selectivity ratio [4]: 166 to 600; MIC [5]: 12.5 µg/mL (≈ 25.6 µM); Selectivity ratio [6]: 166 to 600; Selectivity ratio [7]: 166 to 600 |
| O=C(/C=C/c1cc2ccccc2[nH]1)c1cc(Br)ccc1O |  |  | 10% |  |
| Oc1c(Br)cccc1CNc1nc2ccc(Br)cc2s1 |  |  | 17% |  |
| Oc1ccc(Br)cc1-c1nnc(-c2cc3ccccc3[nH]2)o1 | >64 µg/mL |  | 8% |  |
| O=C(/C=C/c1cc2ccc(Br)cc2[nH]1)c1cc2ccccc2[nH]1 | >64 µg/mL |  | 38% |  |
| O=C(/C=C/c1c[nH]c2ccc(Br)cc12)c1cc2ccccc2[nH]1 | >64 µg/mL | 1780 nM |  |  |
| COc1ccc(Br)cc1-c1cccc(-c2cc3ccccc3[nH]2)n1 | >64 µg/mL |  | 6% |  |
| O=C(/C=C/c1cc2ccc(Br)cc2[nH]1)c1ccc(Br)cc1O | >64 µg/mL | 132 nM |  |  |
| O=C(/C=C/c1cc2ccc(Br)cc2[nH]1)c1cccc(Br)c1O | >64 µg/mL |  | 41% |  |
| Oc1ccc(Br)cc1/C=N/c1nc2ccc(Br)cc2s1 | 64 µg/mL (≈ 155 µM) |  | 41% |  |
| O=C(Nc1nc2cc(Br)ccc2s1)c1cc2ccccc2[nH]1 | >64 µg/mL |  |  |  |
| O=C(Nc1nc2ccc(Br)cc2s1)c1cc2ccccc2[nH]1 | >64 µg/mL |  |  |  |
| O=C(/C=C/c1c[nH]c2ccc(Br)cc12)c1c[nH]c2ccccc12 |  |  | 1% |  |
| O=C(Nc1nc2ccc(Br)cc2s1)c1cccc(Br)c1O | 4 µg/mL (≈ 9.34 µM) |  |  |  |
| O=C(Nc1ccc(Br)cc1)c1cc2ccc(Br)cc2s1 | >64 µg/mL |  |  | inhibition [9]: 43% |

| SMILES | MIC>98 [1] | IC50 [2] | inhibition [8] | further results |
| --- | --- | --- | --- | --- |
| O=C(/C=C/c1cc2ccc(Br)cc2[nH]1)c1cc2cc(Br)ccc2[nH]1 | >64 µg/mL |  | 21% |  |
| O=C(Nc1ccc(Br)cc1)c1cc2ccc(Br)cc2[nH]1 | >64 µg/mL | 10 nM |  |  |
| O=C(/C=C/c1ccc(Br)cc1O)c1cc2ccc(Br)cc2[nH]1 | >64 µg/mL | 14 nM |  |  |
| O=C(/C=C/c1c[nH]c2cc(Br)ccc12)c1c[nH]c2ccccc12 |  |  | 28% |  |
| O=C(/C=C/c1cc2ccccc2[nH]1)c1cccc(Br)c1O |  |  |  | inhibition [10]: 2% |
| O=C(/C=C/c1c[nH]c2cc(Br)ccc12)c1cc2ccccc2[nH]1 |  |  | 45% |  |
| COc1ccc(Br)cc1-c1nnc(-c2cc3ccccc3[nH]2)o1 | >64 µg/mL |  | 19% |  |
| Oc1ccc(Br)cc1-c1ccnc(-c2cc3ccc(Br)cc3[nH]2)c1 | >64 µg/mL |  |  | inhibition [9]: 41% |
| O=C(/C=C/c1cc2ccc(Br)cc2[nH]1)c1cc(Br)ccc1O | >64 µg/mL |  | 15% |  |
| O=C(Nc1nc2ccc(Br)cc2s1)c1cc(Br)cc(Br)c1O | 1 µg/mL (≈ 1.97 µM) | 4 nM |  |  |
| O=C(Nc1nc2ccc(Br)cc2s1)c1cccc(Cl)c1O | 4 µg/mL (≈ 10.4 µM) |  |  | inhibition [9]: 43% |
| Brc1ccc(-c2c[nH]c3ccc(Br)cc23)cc1 | 1 µg/mL (≈ 2.85 µM) |  |  | inhibition [9]: 20% |
| O=C(Nc1nc2cc(Br)ccc2[nH]1)c1cc(Br)ccc1O | 4 µg/mL (≈ 9.73 µM) | 11 nM |  |  |
| O=C(Nc1cccc(Br)c1O)c1cc2ccc(Br)cc2[nH]1 | >64 µg/mL |  |  |  |
| O=C(Nc1nc2ccc(Br)cc2s1)c1cc(Br)ccc1O | >64 µg/mL |  |  |  |
| O=C(Nc1nc2cc(Br)ccc2s1)c1cc2cc(Br)ccc2[nH]1 | >64 µg/mL | 8 nM |  |  |
| Brc1ccc(-c2c[nH]c3cc(Br)ccc23)cc1 | 2 µg/mL (≈ 5.7 µM) |  |  |  |
| O=C(/C=C/c1cc2ccc(Br)cc2[nH]1)c1ccccc1O | >64 µg/mL | 343 nM |  |  |
| O=C1c2ccc(Br)cc2C(=O)N1c1nc2ccc(Br)cc2s1 | >64 µg/mL |  | 34% |  |
| O=C(Nc1cc(Br)ccc1O)c1cc2ccc(Br)cc2[nH]1 | >64 µg/mL | 12 nM |  |  |

| SMILES | MIC>98 [1] | IC50 [2] | inhibition [8] | further results |
| --- | --- | --- | --- | --- |
| O=C(/C=C/c1cccc(Br)c1O)c1cc2ccc(Br)cc2[nH]1 | >64 µg/mL | 403 nM |  |  |
| COc1ccc(Br)cc1/C=C/C(=O)c1cc2ccc(Br)cc2[nH]1 | >64 µg/mL | 8 nM |  |  |
| O=C(Nc1cc(Br)ccc1O)c1cc2ccccc2[nH]1 |  |  | 28% |  |
| O=C(/C=C/c1cc(Br)ccc1O)c1cc2ccc(Br)cc2[nH]1 | 1 µg/mL (≈ 2.37 µM) | 24 nM |  |  |
| O=C(/C=C/c1cc2ccc(Br)cc2[nH]1)c1cc2ccc(Br)cc2[nH]1 |  |  | 6% |  |
| CN(C(=O)c1cc(Br)ccc1O)c1nc2ccc(Br)cc2s1 |  |  | 5% |  |
| O=C(Nc1nc2cc(Br)ccc2s1)c1cc(Br)ccc1O | >64 µg/mL |  | 48% |  |
| COc1c(Br)cccc1C(=O)Nc1nc2ccc(Br)cc2s1 | >64 µg/mL |  | 22% |  |
| O=C(Nc1ccc(Br)cc1)c1cc2ccccc2[nH]1 | >64 µg/mL |  | 41% |  |
| COc1ccc(Br)cc1/C=C1\CCc2c([nH]c3ccccc23)C1=O |  |  | 22% |  |
| O=C(/C=C/c1cc2ccccc2[nH]1)c1ccc(Br)cc1O | >64 µg/mL | 553 nM |  |  |
| O=C(/C=C/c1cc(Br)ccc1O)c1cc2ccccc2[nH]1 | 2 µg/mL (≈ 5.84 µM) | 355 nM |  |  |
| O=C(c1ncc(-c2c[nH]c3cc(Br)ccc23)[nH]1)c1c[nH]c2ccccc12 [BROMODEOXYTOPSENTIN] |  | 60 nM |  |  |
| COc1ccc(Br)cc1C(=O)Nc1nc2ccc(Br)cc2s1 | >64 µg/mL | 8 nM |  |  |
| O=C(Nc1nc2ccccc2s1)c1cc(Br)ccc1O | >64 µg/mL |  | 13% |  |
| Cn1c(C(=O)Nc2nc3ccc(Br)cc3s2)cc2ccccc21 | >64 µg/mL |  | 41% |  |
| O=C(Nc1nc2ccc(Br)cc2s1)c1ccccc1O | >64 µg/mL |  | 65% |  |
| Brc1ccc(-c2cc3cc(Br)ccc3[nH]2)cc1 |  |  | 21% |  |
